Type in all cases: biochemical
One test deals with LCK (Homo sapiens, UniProt P06239). The test is described as follows: IC50 inhibitory activity against LCK kinase. Conditions: read-out: LCK IC50. Here is the method:
(§1) IC50 values were calculated by measuring the inhibitory activity against LCK, c-Src, p38a/MAPK14, ABL1, DDR1 and FGR kinases of the compounds of the present invention.

Another test addresses c-Src (Homo sapiens, UniProt P12931). The test is described as follows: IC50 inhibitory activity against c-Src kinase. Conditions: read-out: c-Src IC50. As for the experimental part:
as §1

The target of the next test is p38a/MAPK14 (Homo sapiens, UniProt Q16539). The test is described as follows: IC50 inhibitory activity against p38a/MAPK14 kinase. Conditions: read-out: p38a/MAPK14 IC50. As for the experimental part:
as §1

In another test the target is ABL1 (Homo sapiens, UniProt P00519). The experiment in a line: IC50 inhibitory activity against ABL1 kinase. Conditions: read-out: ABL1 IC50. As for the experimental part: as §1
The target in another test is ABL1 (T315I) (Homo sapiens, UniProt P00519, T315I). The experiment in a line: IC50 inhibitory activity against ABL1 (T315I) kinase. Conditions: read-out: ABL1 (T315I) IC50. As for the experimental part: as §1
The target in a further test is LYN (Homo sapiens, UniProt P07948). The test is described as follows: IC50 inhibitory activity against LYN kinase.
Chain of LYN (P07948 whole entry): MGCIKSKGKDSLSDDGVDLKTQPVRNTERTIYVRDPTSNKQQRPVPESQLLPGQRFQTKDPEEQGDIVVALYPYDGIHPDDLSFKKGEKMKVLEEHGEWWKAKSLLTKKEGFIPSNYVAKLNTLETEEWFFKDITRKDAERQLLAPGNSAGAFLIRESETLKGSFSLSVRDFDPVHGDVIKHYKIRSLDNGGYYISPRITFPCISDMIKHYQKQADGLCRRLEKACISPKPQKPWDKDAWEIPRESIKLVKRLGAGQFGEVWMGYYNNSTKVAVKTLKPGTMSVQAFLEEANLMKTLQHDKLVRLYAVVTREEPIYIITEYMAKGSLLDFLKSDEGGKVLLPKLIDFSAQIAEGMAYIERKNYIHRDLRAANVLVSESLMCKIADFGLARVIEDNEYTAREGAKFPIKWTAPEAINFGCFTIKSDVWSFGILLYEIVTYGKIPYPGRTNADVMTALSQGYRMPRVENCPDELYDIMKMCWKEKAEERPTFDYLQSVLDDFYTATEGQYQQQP

pIC50: −log10 of the molar value.

Chain of p38a/MAPK14 (Q16539 whole entry): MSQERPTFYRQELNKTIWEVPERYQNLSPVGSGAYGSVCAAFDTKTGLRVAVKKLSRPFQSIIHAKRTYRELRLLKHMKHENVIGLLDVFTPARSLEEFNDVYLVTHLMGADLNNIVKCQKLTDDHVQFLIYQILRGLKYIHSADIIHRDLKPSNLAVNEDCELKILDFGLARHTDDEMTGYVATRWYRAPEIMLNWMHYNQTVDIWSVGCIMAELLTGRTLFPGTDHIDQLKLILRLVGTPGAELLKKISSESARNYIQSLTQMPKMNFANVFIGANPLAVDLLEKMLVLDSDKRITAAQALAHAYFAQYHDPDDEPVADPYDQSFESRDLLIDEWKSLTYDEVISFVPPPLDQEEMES
Chain of c-Src (P12931 whole entry): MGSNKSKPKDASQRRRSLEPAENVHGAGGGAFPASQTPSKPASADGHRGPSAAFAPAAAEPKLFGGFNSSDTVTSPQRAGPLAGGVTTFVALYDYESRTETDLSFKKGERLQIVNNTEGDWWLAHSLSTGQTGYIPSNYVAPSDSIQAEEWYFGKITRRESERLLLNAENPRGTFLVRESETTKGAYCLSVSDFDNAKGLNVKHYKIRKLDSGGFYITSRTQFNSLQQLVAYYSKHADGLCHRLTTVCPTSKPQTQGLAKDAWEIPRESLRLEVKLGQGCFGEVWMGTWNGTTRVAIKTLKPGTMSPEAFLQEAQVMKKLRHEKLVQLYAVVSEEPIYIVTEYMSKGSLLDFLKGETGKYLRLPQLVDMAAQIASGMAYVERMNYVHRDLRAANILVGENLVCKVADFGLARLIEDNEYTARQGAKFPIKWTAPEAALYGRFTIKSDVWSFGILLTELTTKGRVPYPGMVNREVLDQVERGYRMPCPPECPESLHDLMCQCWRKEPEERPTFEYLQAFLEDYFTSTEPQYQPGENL
Chain of LCK (P06239 whole entry): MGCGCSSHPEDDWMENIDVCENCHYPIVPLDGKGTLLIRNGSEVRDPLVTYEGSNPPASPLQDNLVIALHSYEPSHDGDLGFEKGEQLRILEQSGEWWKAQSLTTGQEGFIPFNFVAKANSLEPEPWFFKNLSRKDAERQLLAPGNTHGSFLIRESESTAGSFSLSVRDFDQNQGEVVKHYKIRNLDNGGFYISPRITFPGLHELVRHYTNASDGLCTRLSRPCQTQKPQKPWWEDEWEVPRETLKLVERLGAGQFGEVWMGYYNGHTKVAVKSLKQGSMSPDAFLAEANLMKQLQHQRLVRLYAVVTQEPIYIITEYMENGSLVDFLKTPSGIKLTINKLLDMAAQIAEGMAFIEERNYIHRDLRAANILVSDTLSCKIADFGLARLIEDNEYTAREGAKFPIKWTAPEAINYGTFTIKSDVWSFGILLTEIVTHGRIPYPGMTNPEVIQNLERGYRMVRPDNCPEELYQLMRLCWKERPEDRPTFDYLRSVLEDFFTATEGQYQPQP

Turning to `Cc1ccc(Nc2ncc3c(n2)N(C)C(=O)N(c2cc(NC(=O)c4ccc5c(c4)N(Cc4ccccc4)C(=O)[C@H](C)N=C5c4ccccc4)ccc2C)C3)cn1` [Example 31, (S)-1-benzyl-3-methyl-N-(4-methyl-3-(1-methyl-7-((6-methylpyridin-3-yl)amino)-2-oxo-1,4-dihydropyrimido[4,5-d]pyrimidin-3(2H)-yl)phenyl)-2-oxo-5-phenyl-2,3-dihydro-1H-benzo[e][1,4]diazepine-8-carboxamide], the pIC50 on LCK is 6.70 to 9.00; on c-Src, 6.70 to 9.00; at p38a/MAPK14 it was 6.70 to 9.00; at ABL1 it was 6.70 to 9.00; at ABL1 (T315I) it was below 6.22; at LYN, 6.70 to 9.00.

The values are drawn from US11530221B2, “Pyrimido[4,5-d]pyrimidin-2-one derivatives as protein kinase inhibitors” (KOREA INSTITUTE OF SCIENCE AND TECHNOLOGY, priority 2019, dated 2022).
